Active and inactive are the calls of the source. No cut-off for these calls is given here.
Assays:
MCF7 [1] = assay: Induction of DNA damage-mediated apoptosis in human MCF7 cells assessed as phosphorylation of p53 at Ser-15 residue after 24 hrs by DAPI staining based immunocytochemistry analysis; format: cell-based
MCF7 [2] = assay: Induction of DNA damage-mediated apoptosis in human MCF7 cells assessed as decrease in HDAC1 levels in nuclear fraction at 8 to 16 nM after 24 hrs by immunoblot analysis; format: cell-based
[3] = Cytotoxicity against human MDA-MB-231 ER negative, PR negative,HER2 negative cells assessed as cell growth inhibition after 24 hrs by MTT assay; format: functional, cell-based; details: MDA-MB-231, 24 h
Bos taurus [4] = species: Bos taurus; assay: Inhibition of DAPI binding to calf thymus DNA at 10 to 50 uM measured at 460 nm by fluorescence spectroscopic method
[5] = Cytotoxicity against human HepG2 cells assessed as cell growth inhibition after 24 hrs by MTT assay; format: functional, cell-based; details: HepG2, 24 h
[6] = Cell cycle arrest in human MCF7 cells assessed as G0/G1 phase at 12 nM after 24 hrs by propidium iodide staining based FACS analysis (reference value: 43.9%); format: functional
[7] = Cytotoxicity against human HCT116 cells assessed as cell growth inhibition after 24 hrs by MTT assay; format: functional, cell-based; details: HCT-116, 24 h
[8] = Cell cycle arrest in human MCF7 cells assessed as G2/M phase at 8 nM after 24 hrs by propidium iodide staining based FACS analysis (reference value: 28.3%); format: functional
Bos taurus [9] = species: Bos taurus; assay: Binding affinity to calf thymus DNA assessed as DNA positive band formation at 1:1 compound to DNA ratio by circular dichroism method
MCF7 [10] = assay: Induction of DNA double strand breaks in human MCF7 cells assessed as activation of phosphorylated Chk2 at Thr68 residue after 24 hrs immunoblot analysis; format: cell-based
MCF7 [11] = assay: Induction of apoptosis in human MCF7 cells assessed as late apoptotic cells at 8 nM after 24 hrs by Annexin V-FITC/propidium iodide-dual staining based FACS analysis (reference value: 0.1%); format: functional
[12] = Cell cycle arrest in human MCF7 cells assessed as S phase at 12 nM after 24 hrs by propidium iodide staining based FACS analysis (reference value: 27.5%); format: functional
MCF7 [13] = assay: Binding affinity to DNA in human MCF7 cells assessed as formation of DNA double strand breaks after 24 hrs by neutral comet assay; format: cell-based
MCF7 [14] = assay: Binding affinity to DNA in human MCF7 cells assessed as formation of nuclear DNA double strand breaks at 12 nM after 24 hrs by DAPI-staining based fluorescence microscopic analysis; format: cell-based
MCF7 [15] = assay: Induction of DNA double strand breaks in human MCF7 cells assessed as increase in H2AX to gamma-H2AX ratio at near IC50 after 24 hrs by DAPI staining-based immunocytochemistry analysis relative to control; format: cell-based
MCF7 [16] = assay: Induction of DNA damage-mediated apoptosis in human MCF7 cells assessed as cleavage of caspase-3 after 24 hrs by immunoblot analysis; format: cell-based
MCF7 [17] = assay: Induction of DNA double strand breaks in human MCF7 cells assessed as activation of phosphorylated ATM at ser1981 residue after 24 hrs immunoblot analysis; format: cell-based
MCF7 [18] = assay: Disruption of mitochondrial membrane potential in human MCF7 cells assessed as decrease in red/green fluorescence ratio at 8 to 16 nM after 24 hrs by JC1-staining based fluorescent microscopic analysis; format: functional, cell-based
MCF7 [19] = assay: Induction of apoptosis in human MCF7 cells assessed as late apoptotic cells at 12 nM after 24 hrs by Annexin V-FITC/propidium iodide-dual staining based FACS analysis (reference value: 0.1%); format: functional
[20] = Induction of DNA damage-mediated apoptosis in human MCF7 cells assessed as upregulation of cytochrome c after 24 hrs by immunoblot analysis; format: cell-based
MCF7 [21] = assay: Induction of DNA damage-mediated apoptosis in human MCF7 cells assessed as increase in Rb-E2F1 interaction at 8 to 16 nM after 24 hrs by co-immunoprecipitation analysis; format: cell-based
[22] = Cytotoxicity against human HaCaT cells assessed as cell growth inhibition after 24 hrs by MTT assay; format: toxicity, cell-based
[23] = Cytotoxicity against human WI38 cells assessed as cell growth inhibition after 24 hrs by MTT assay; format: toxicity, cell-based, WI-38
MCF7 [24] = assay: Induction of DNA damage-mediated apoptosis in human MCF7 cells assessed as Rb hypo-phosphorylation after 24 hrs by immunoblot analysis; format: cell-based
Escherichia coli = assay: Induction of Escherichia coli supercoiled pBR322 DNA cleavage assessed as increase in open circular form of DNA band after 3 hrs by ethidium bromide staining based agarose gel electrophoresis method
MCF7 [25] = assay: Induction of DNA damage-mediated apoptosis in human MCF7 cells assessed as decrease in HDAC2 expression in cytoplasmic fraction at 8 to 16 nM after 24 hrs by immunoblot analysis; format: cell-based
MCF7 [26] = assay: Induction of apoptosis in human MCF7 cells assessed as early apoptotic cells at 16 nM after 24 hrs by Annexin V-FITC/propidium iodide-dual staining based FACS analysis (reference value: 2.3%); format: functional
MCF7 [27] = assay: Induction of DNA double strand breaks in human MCF7 cells assessed as activation of phosphorylated p53 at ser15 residue after 24 hrs immunoblot analysis; format: cell-based
MCF7 [28] = assay: Induction of DNA damage-mediated apoptosis in human MCF7 cells assessed as deactivation of Akt at 12 nM after 2 hrs by immunoblot analysis; format: cell-based
MCF7 [29] = assay: Induction of DNA double strand breaks in human MCF7 cells assessed as increase in H2AX to gamma-H2AX ratio at near IC50 after 24 hrs by Western blot analysis relative to control; format: cell-based
[30] = Cytotoxicity against human HeLa cells assessed as cell growth inhibition after 24 hrs by MTT assay; format: functional, cell-based
MCF7 [31] = assay: Induction of DNA damage-mediated apoptosis in human MCF7 cells assessed as delocalization of HDAC3 from nuclear to cytoplasm at 8 to 16 nM after 24 hrs by DAPI staining based immunocytochemistry analysis; format: cell-based
[32] = (§1) Cytotoxicity against human MCF7 ER positive, PR positive/negative,HER2 negative cells assessed as cell growth inhibition after 24 hrs by MTT assay; format: functional, cell-based; details: MCF7, 24 h
MCF7 [33] = assay: as §1; format: functional, cell-based
MCF7 [34] = assay: Binding affinity to DNA in human MCF7 cells assessed as formation of DNA double strand breaks after 24 hrs by alkaline comet assay; format: cell-based
[35] = Cytotoxicity against human SKBR3 ER negative, PR negative,HER2 positive cells assessed as cell growth inhibition after 24 hrs by MTT assay; format: functional, cell-based; details: SK-BR-3, 24 h
MCF7 [36] = assay: Induction of DNA double strand breaks in human MCF7 cells assessed as increase in H2AX to gamma-H2AX ratio after 24 hrs by Western blot analysis; format: cell-based
Bos taurus [37] = species: Bos taurus; assay: Binding affinity to calf thymus DNA assessed hyperchromic shift at 260 nm up to 1:1 compound to DNA ratio measured by UV-Vis spectrophotometric analysis
MCF7 [38] = assay: Induction of DNA damage-mediated apoptosis in human MCF7 cells assessed as increase in Bax/Bcl2 ratio after 24 hrs by immunoblot analysis; format: cell-based
[39] = Cell cycle arrest in human MCF7 cells assessed as S phase at 8 nM after 24 hrs by propidium iodide staining based FACS analysis (reference value: 27.5%); format: functional

Question: With O=c1cc(OCc2ccccc2)c2ccc3ccccc3c2[nH]1 as the compound, how does the Activity (MCF7 [1]) read?
Answer: Its Activity is “Dose-dependent effect”.

Question: What about the Activity (MCF7 [2]) of the same compound?
Answer: Its Activity is “Active”.

Question: And the IC50 [3]?
Answer: The IC50 was 62.9 nM.

Question: What about the inhibition (Bos taurus [4]) of the same compound?
Answer: Its inhibition is “Active”.

Question: What about the IC50 [5] of the same compound?
Answer: Its IC50 is 37000 nM.

Question: And the Activity [6]?
Answer: The Activity was 58.1%.

Question: And the IC50 [7]?
Answer: The IC50 was 44.1 nM.

Question: And the Activity [8]?
Answer: The Activity was 19%.

Question: What about the Activity (Bos taurus [9]) of the same compound?
Answer: Its Activity is “Active”.

Question: And the Activity (MCF7 [10])?
Answer: The Activity was “Dose-dependent effect”.

Question: And the Activity (MCF7 [11])?
Answer: The Activity was 7.2%.

Question: What about the Activity [12] of the same compound?
Answer: Its Activity is 25.1%.

Question: What about the Activity (MCF7 [13]) of the same compound?
Answer: Its Activity is “Dose-dependent effect”.

Question: And the Activity (MCF7 [14])?
Answer: Its Activity is “Active”.

Question: What about the fold change (FC) (MCF7 [15]) of the same compound?
Answer: The fold change (FC) was 11.

Question: And the Activity (MCF7 [16])?
Answer: The Activity was “Dose-dependent effect”.

Question: And the Activity (MCF7 [17])?
Answer: The Activity was “Dose-dependent effect”.

Question: And the Activity (MCF7 [18])?
Answer: The Activity was “Active”.

Question: What about the Activity (MCF7 [19]) of the same compound?
Answer: Its Activity is 5.8%.

Question: And the Activity [20]?
Answer: Its Activity is “Dose-dependent effect”.

Question: And the Activity (MCF7 [21])?
Answer: Its Activity is “Active”.

Question: What about the IC50 at 24 h [22] of the same compound?
Answer: Its IC50 at 24 h is over 100000 nM.

Question: What about the IC50 at 24 h [23] of the same compound?
Answer: The IC50 at 24 h was over 100000 nM.

Question: And the Activity (MCF7 [24])?
Answer: The Activity was “Dose-dependent effect”.

Question: And the Activity (Escherichia coli)?
Answer: Its Activity is “Dose-dependent effect”.

Question: What about the Activity (MCF7 [25]) of the same compound?
Answer: The Activity was “Active”.

Question: What about the Activity (MCF7 [26]) of the same compound?
Answer: The Activity was 43.5%.

Question: What about the Activity (MCF7 [27]) of the same compound?
Answer: Its Activity is “Dose-dependent effect”.

Question: What about the Activity (MCF7 [28]) of the same compound?
Answer: The Activity was “Active”.

Question: What about the fold change (FC) (MCF7 [29]) of the same compound?
Answer: The fold change (FC) was 6.3.

Question: And the IC50 [30]?
Answer: The IC50 was 52100 nM.

Question: And the Activity (MCF7 [31])?
Answer: Its Activity is “Active”.

Question: And the IC50 [32]?
Answer: The IC50 was 12 nM.

Question: And the “growth inhibition (GI)” value (MCF7 [33])?
Answer: The value was “Dose-dependent effect”.

Question: And the Activity (MCF7 [34])?
Answer: The Activity was “Dose-dependent effect”.

Question: What about the IC50 [35] of the same compound?
Answer: Its IC50 is 23.7 nM.

Question: And the Activity (MCF7 [36])?
Answer: The Activity was “Dose-dependent effect”.

Question: And the Activity (Bos taurus [37])?
Answer: The Activity was “Active”.

Question: And the Activity (MCF7 [38])?
Answer: The Activity was “Dose-dependent effect”.

Question: What about the Activity [39] of the same compound?
Answer: Its Activity is 25.8%.
